Key:
[1] = target: T1, THR alpha-LBD (Homo sapiens, UniProt P10827); assay: THR-α Coactivator Peptide Recruitment Assay (LanthaScreen TR-FRET); assay type: biochemical; settings: TR-FRET coactivator recruitment, THR alpha-LBD 0.25 nM; for EC50: read-out: THRα EC50
T1 construct: except that THR alpha-LBD of a final concentration 0.25 nM was used; purchased Invitrogen PV4687
How it was run: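 TR-FRET coactivator recruitment with THR alpha-LBD at 0.25 nM final, Fluorescein-SRC2-2 peptide 0.1 nM and Tb-labeled anti-GST antibody 2 nM; 2 h incubation at room temperature. 520/495 nm emission ratio fitted to a four-parameter sigmoidal curve to give EC50.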

[2] = target: T2, THR beta-LBD (Homo sapiens, UniProt P10828); assay: THR-β Coactivator Peptide Recruitment Assay (LanthaScreen TR-FRET); assay type: biochemical; settings: TR-FRET coactivator recruitment, THR beta-LBD 0.5 nM; for EC50: read-out: THRβ EC50
T2 construct: THR beta-LBD (the final concentration is 0.5 nM) was added to the 384-well assay plate; purchased Invitrogen PV4686
T2 sequence (P10828 217-461 limits assumed): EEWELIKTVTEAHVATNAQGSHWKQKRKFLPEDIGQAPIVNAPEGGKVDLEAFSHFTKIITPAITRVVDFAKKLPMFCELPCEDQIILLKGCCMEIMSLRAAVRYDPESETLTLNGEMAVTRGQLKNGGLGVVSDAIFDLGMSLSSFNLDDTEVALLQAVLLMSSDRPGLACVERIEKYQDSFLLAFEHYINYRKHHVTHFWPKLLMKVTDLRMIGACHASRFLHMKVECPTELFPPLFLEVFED
How it was run: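 Agonist-driven coactivator recruitment read as a 520/495 nm TR-FRET emission ratio after 2 h at room temperature. Final concentrations: THR beta-LBD 0.5 nM, fluorescein-SRC2-2 peptide 0.1 nM, terbium anti-GST antibody 2 nM. EC50 from four-parameter dose-response fitting.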

T1 sequence (P10827 163-410 isoform P10827-2 limits assumed, other chains not shown): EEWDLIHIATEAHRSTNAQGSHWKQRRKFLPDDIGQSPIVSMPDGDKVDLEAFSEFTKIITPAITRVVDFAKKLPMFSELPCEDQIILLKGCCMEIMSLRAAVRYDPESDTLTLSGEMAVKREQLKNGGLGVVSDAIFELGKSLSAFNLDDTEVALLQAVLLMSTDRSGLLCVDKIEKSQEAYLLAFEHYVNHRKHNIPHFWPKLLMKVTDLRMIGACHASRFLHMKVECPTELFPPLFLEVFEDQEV

Row | THRα Emax [1] | EC50 [1] | THRβ Emax [2] | EC50 [2] | Compound
1 | A (85~110) | 2 to 200 nM | A (90~110) | < 2 nM | CC(C)NS(=O)(=O)c1cc(Oc2c(Cl)cc(-n3nc(C(F)F)c(=O)[nH]c3=O)cc2Cl)ncc1O [Compound 110, 2-(2,6-dichloro-4-(6-(difluoromethyl)-3,5-dioxo-4,5-dihydro-1,2,4-triazin-2(3H)-yl)phenoxy)-5-hydroxy-N-isopropylpyridine-4-sulfonamide]
2 | A (85~110) | 2 to 200 nM | A (90~110) | < 2 nM | O=c1[nH]c(=O)n(-c2cc(Cl)c(Oc3cc(S(=O)(=O)NCC(F)F)c(O)cn3)c(Cl)c2)nc1C(F)F [Compound 111, 2-(2,6-dichloro-4-(6-(difluoromethyl)-3,5-dioxo-4,5-dihydro-1,2,4-triazin-2(3H)-yl)phenoxy)-N-(2,2-difluoroethyl)-5-hydroxypyridine-4-sulfonamide]
3 | A (85~110) | 2 to 200 nM | A (90~110) | < 2 nM | CCNS(=O)(=O)c1cc(Oc2c(Cl)cc(-n3nc(C(F)F)c(=O)[nH]c3=O)cc2Cl)ncc1O [Compound 112, 2-(2,6-dichloro-4-(6-(difluoromethyl)-3,5-dioxo-4,5-dihydro-1,2,4-triazin-2(3H)-yl)phenoxy)-N-ethyl-5-hydroxypyridine-4-sulfonamide]
4 | A (85~110) | 2 to 200 nM | B (75~90) | < 2 nM | CN(C)S(=O)(=O)c1cc(Oc2c(Cl)cc(-n3nc(C(F)F)c(=O)[nH]c3=O)cc2Cl)ncc1O [Compound 113, 2-(2,6-dichloro-4-(6-(difluoromethyl)-3,5-dioxo-4,5-dihydro-1,2,4-triazin-2(3H)-yl)phenoxy)-5-hydroxy-N,N-dimethylpyridine-4-sulfonamide]
5 | A (85~110) | 2 to 200 nM | A (90~110) | < 2 nM | N#Cc1nn(-c2cc(Cl)c(Oc3cc(S(=O)(=O)NC4CC4)c(O)cn3)c(Cl)c2)c(=O)[nH]c1=O [Compound 114, N-cyclopropyl-2-(2,6-dichloro-4-(6-cyano-3,5-dioxo-4,5-dihydro-1,2,4-triazin-2(3H)-yl)phenoxy)-5-hydroxypyridine-4-sulfonamide]
6 | B (40~85) | > 1000 nM | C (<75) | 2 to 20 nM | O=C(NC1CCC1)C1(NS(=O)(=O)c2cc(Oc3c(Cl)cc(-n4nc(C(F)F)c(=O)[nH]c4=O)cc3Cl)ncc2O)CC1 [Compound 115, N-cyclobutyl-1-[[2-[2,6-dichloro-4-[6-(difluoromethyl)-3,5-dioxo-1,2,4-triazin-2-yl]phenoxy]-5-hydroxy-4-pyridyl]sulfonylamino]cyclopropanecarboxamide]
7 | B (40~85) | > 1000 nM | C (<75) | 20 to 100 nM | O=C(NC1CCCC1)C1(NS(=O)(=O)c2cc(Oc3c(Cl)cc(-n4nc(C(F)F)c(=O)[nH]c4=O)cc3Cl)ncc2O)CC1 [Compound 116, N-cyclopentyl-1-((2-(2,6-dichloro-4-(6-(difluoromethyl)-3,5-dioxo-4,5-dihydro-1,2,4-triazin-2(3H)-yl)phenoxy)-5-hydroxypyridine)-4-sulfonamido)cyclopropane-1-carboxamide]
8 | C (<40) | > 1000 nM | C (<75) | 20 to 100 nM | O=C(NCC(F)F)C1(NS(=O)(=O)c2cc(Oc3c(Cl)cc(-n4nc(C(F)F)c(=O)[nH]c4=O)cc3Cl)ncc2O)CC1 [Compound 117, 1-((2-(2,6-dichloro-4-(6-(difluoromethyl)-3,5-dioxo-4,5-dihydro-1,2,4-triazin-2(3H)-yl)phenoxy)-5-hydroxypyridine)-4-sulfonamido)-N-(2,2-difluoroethyl)cyclopropane-1-carboxamide]
9 | C (<40) | > 1000 nM | B (75~90) | > 100 nM | O=C(N1CCCC1)C1(NS(=O)(=O)c2cc(Oc3c(Cl)cc(-n4nc(C(F)F)c(=O)[nH]c4=O)cc3Cl)ncc2O)CC1 [Compound 118, 2-(2,6-dichloro-4-(6-(difluoromethyl)-3,5-dioxo-4,5-dihydro-1,2,4-triazin-2(3H)-yl)phenoxy)-5-hydroxy-N-(1-(pyrrolidine-1-carbonyl)cyclopropyl)pyridine-4-sulfonamide]
10 | C (<40) | > 1000 nM | C (<75) | > 100 nM | O=C(CNS(=O)(=O)c1cc(Oc2c(Cl)cc(-n3nc(C(F)F)c(=O)[nH]c3=O)cc2Cl)ncc1O)NC1CCC1 [Compound 119, N-cyclobutyl-2-[[2-[2,6-dichloro-4-[6-(difluoromethyl)-3,5-dioxo-1,2,4-triazin-2-yl]-phenoxy]-5-hydroxy-4-pyridyl]-sulfonylamino]-acetamide]
11 | C (<40) | > 1000 nM | C (<75) | > 100 nM | O=C(CNS(=O)(=O)c1cc(Oc2c(Cl)cc(-n3nc(C(F)F)c(=O)[nH]c3=O)cc2Cl)ncc1O)NC1CC1 [Compound 120, N-cyclopropyl-2-((2-(2,6-dichloro-4-(6-(difluoromethyl)-3,5-dioxo-4,5-dihydro-1,2,4-triazin-2(3H)-yl)phenoxy)-5-hydroxypyridine)-4-sulfonamido)acetamide]
12 | C (<40) | > 1000 nM | C (<75) | > 100 nM | O=C(NC1CC1)C1(NS(=O)(=O)c2cc(Oc3c(Cl)cc(-n4nc(C(F)F)c(=O)[nH]c4=O)cc3Cl)ncc2O)CCC1 [Compound 121, N-cyclopropyl-1-((2-(2,6-dichloro-4-(6-(difluoromethyl)-3,5-dioxo-4,5-dihydro-1,2,4-triazin-2(3H)-yl)phenoxy)-5-hydroxypyridine)-4-sulfonamido)cyclobutane-1-carboxamide]
13 | B (40~85) | 200 to 1000 nM | C (<75) | 2 to 20 nM | CC1(C)CC(NS(=O)(=O)c2cc(Oc3c(Cl)cc(-n4nc(C(F)F)c(=O)[nH]c4=O)cc3Cl)ncc2O)C1 [Compound 122]
14 | A (85~110) | 2 to 200 nM | A (90~110) | < 2 nM | O=c1[nH]c(=O)n(-c2cc(Cl)c(Oc3cc(S(=O)(=O)NC4CCC4)c(O)cn3)c(Cl)c2)nc1C(F)F [Compound 123, N-cyclobutyl-2-(2,6-dichloro-4-(6-(difluoromethyl)-3,5-dioxo-4,5-dihydro-1,2,4-triazin-2(3H)-yl)phenoxy)-5-hydroxypyridine-4-sulfonamide]
15 | B (40~85) | 2 to 200 nM | B (75~90) | < 2 nM | O=c1[nH]c(=O)n(-c2cc(Cl)c(Oc3cc(S(=O)(=O)NC4CCCC4)c(O)cn3)c(Cl)c2)nc1C(F)F [Compound 124, N-cyclopentyl-2-(2,6-dichloro-4-(6-(difluoromethyl)-3,5-dioxo-4,5-dihydro-1,2,4-triazin-2(3H)-yl)phenoxy)-5-hydroxypyridine-4-sulfonamide]
16 | B (40~85) | 200 to 1000 nM | B (75~90) | 2 to 20 nM | N#C[C@H]1C[C@@H](NS(=O)(=O)c2cc(Oc3c(Cl)cc(-n4nc(C(F)F)c(=O)[nH]c4=O)cc3Cl)ncc2O)C1 [Compound 125, N-((1s,3s)-3-cyanocyclobutyl)-2-(2,6-dichloro-4-(6-(difluoromethyl)-3,5-dioxo-4,5-dihydro-1,2,4-triazin-2(3H)-yl)phenoxy)-5-hydroxypyridine-4-sulfonamide]
17 | C (<40) | 200 to 1000 nM | C (<75) | 20 to 100 nM | CNS(=O)(=O)c1cc(Oc2c(Cl)cc(-n3nc(C(F)F)c(=O)[nH]c3=O)cc2Cl)ncc1OC [Compound 127, 2-(2,6-dichloro-4-(6-(difluoromethyl)-3,5-dioxo-4,5-dihydro-1,2,4-triazin-2(3H)-yl)phenoxy)-5-methoxy-N-methylpyridine-4-sulfonamide]
18 | A (85~110) | 2 to 200 nM | B (75~90) | < 2 nM | O=c1[nH]c(=O)n(-c2cc(Cl)c(Oc3cc(S(=O)(=O)C4CC4)c(O)cn3)c(Cl)c2)nc1C(F)F [Compound 128, 2-[3,5-dichloro-4-[(4-cyclopropylsulfonyl-5-hydroxy-2-pyridyl)oxy]phenyl]-6-(difluoromethyl)-1,2,4-triazine-3,5-dione]
19 | B (40~85) | 2 to 200 nM | A (90~110) | 2 to 20 nM | N#Cc1nn(-c2cc(Cl)c(Oc3cc(S(=O)(=O)C4CC4)c(O)cn3)c(Cl)c2)c(=O)[nH]c1=O [Compound 129, 2-(3,5-dichloro-4-((4-(cyclopropylsulfonyl)-5-hydroxypyridin-2-yl)oxy)phenyl)-3,5-dioxo-2,3,4,5-tetrahydro-1,2,4-triazine-6-carbonitrile]

From patent US12291518B2, “Thyroid hormone receptor agonists and use thereof” (Eccogene Inc., priority 2020, dated 2025)
